From patent publication US20050113292A1 (priority 2003, published 2005) come the findings set out here.

Where only a bound is given, the exact number is not on record here.

In experiment [1] the test system is HIV-1 mediated cell-cell fusion (R8 virus). The settings on record: mediated cell-cell fusion (R8 virus).
In another experiment the test system is M-tropic (BAL) HIV-1. Particulars: M-tropic (BAL).
Another experiment relates to T-tropic (R8) HIV-1. The settings on record: T-tropic (R8).

As usually defined, the IC50 is the concentration that gives 50% inhibition. Take `CC(C)C[C@H](NC(=O)[C@H](CO)NC(=O)[C@H](C)NC(=O)[C@H](Cc1c[nH]c2ccccc12)NC(=O)[C@H](CCCCN)NC(=O)[C@H](CC(=O)O)NC(=O)[C@H](CC(C)C)NC(=O)[C@H](CCC(=O)O)NC(=O)[C@H](CC(C)C)NC(=O)[C@@H]1CSC(C(=O)NCCCC[C@H](NC(=O)CCNC(=O)C2N[C@H](C(=O)N[C@@H](CC(C)C)C(=O)N[C@@H](CCC(=O)O)C(=O)N[C@@H](CC(C)C)C(=O)N[C@@H](CC(=O)O)C(=O)N[C@@H](CCCCN)C(=O)N[C@@H](Cc3c[nH]c4ccccc34)C(=O)N[C@@H](C)C(=O)N[C@@H](CO)C(=O)N[C@@H](CC(C)C)C(=O)N[C@@H](Cc3c[nH]c4ccccc34)C(=O)N[C@@H](CC(N)=O)C(=O)N[C@@H](Cc3c[nH]c4ccccc34)C(=O)N[C@@H](Cc3ccccc3)C(=O)O)CS2)C(=O)N[C@@H](CCCCNC(=O)CNC(=O)C2N[C@H](C(=O)N[C@@H](CC(C)C)C(=O)N[C@@H](CCC(=O)O)C(=O)N[C@@H](CC(C)C)C(=O)N[C@@H](CC(=O)O)C(=O)N[C@@H](CCCCN)C(=O)N[C@@H](Cc3c[nH]c4ccccc34)C(=O)N[C@@H](C)C(=O)N[C@@H](CO)C(=O)N[C@@H](CC(C)C)C(=O)N[C@@H](Cc3c[nH]c4ccccc34)C(=O)N[C@@H](CC(N)=O)C(=O)N[C@@H](Cc3c[nH]c4ccccc34)C(=O)N[C@@H](Cc3ccccc3)C(=O)O)CS2)C(=O)N[C@@H](CO)C(=O)N[C@@H](CO)C(=O)N[C@@H](C)C(N)=O)N1)C(=O)N[C@@H](Cc1c[nH]c2ccccc12)C(=O)N[C@@H](CC(N)=O)C(=O)N[C@@H](Cc1c[nH]c2ccccc12)C(=O)N[C@@H](Cc1ccccc1)C(=O)O` (stereo partly drawn) [Compound 3α-C13]: the IC50 in experiment [1] was 260 nM; with M-tropic (BAL) HIV-1, 430 nM; with T-tropic (R8) HIV-1 it was 430 nM.

Consider `CC[C@H](C)[C@H](NC(=O)[C@@H]1CSC(C(=O)NCCCC[C@H](NC(=O)CCNC(=O)C2N[C@H](C(=O)N[C@H](C(=O)N[C@@H](CCC(=O)O)C(=O)N[C@@H](CCC(=O)O)C(=O)N[C@@H](CO)C(=O)N[C@@H](CCC(N)=O)C(=O)N[C@@H](CC(N)=O)C(=O)N[C@@H](CCC(N)=O)C(=O)N[C@@H](CCC(N)=O)C(=O)N[C@@H](CCC(=O)O)C(=O)N[C@@H](CCCCN)C(=O)N[C@@H](CC(N)=O)C(=O)N[C@@H](CCC(=O)O)C(=O)N[C@@H](CCC(N)=O)C(=O)N[C@@H](CCC(=O)O)C(=O)N[C@@H](CC(C)C)C(=O)N[C@@H](CC(C)C)C(=O)O)[C@@H](C)CC)CS2)C(=O)N[C@@H](CCCCNC(=O)CNC(=O)C2N[C@H](C(=O)N[C@H](C(=O)N[C@@H](CCC(=O)O)C(=O)N[C@@H](CCC(=O)O)C(=O)N[C@@H](CO)C(=O)N[C@@H](CCC(N)=O)C(=O)N[C@@H](CC(N)=O)C(=O)N[C@@H](CCC(N)=O)C(=O)N[C@@H](CCC(N)=O)C(=O)N[C@@H](CCC(=O)O)C(=O)N[C@@H](CCCCN)C(=O)N[C@@H](CC(N)=O)C(=O)N[C@@H](CCC(=O)O)C(=O)N[C@@H](CCC(N)=O)C(=O)N[C@@H](CCC(=O)O)C(=O)N[C@@H](CC(C)C)C(=O)N[C@@H](CC(C)C)C(=O)O)[C@@H](C)CC)CS2)C(=O)N[C@@H](CO)C(=O)N[C@@H](CO)C(=O)N[C@@H](C)C(N)=O)N1)C(=O)N[C@@H](CCC(=O)O)C(=O)N[C@@H](CCC(=O)O)C(=O)N[C@@H](CO)C(=O)N[C@@H](CCC(N)=O)C(=O)N[C@@H](CC(N)=O)C(=O)N[C@@H](CCC(N)=O)C(=O)N[C@@H](CCC(N)=O)C(=O)N[C@@H](CCC(=O)O)C(=O)N[C@@H](CCCCN)C(=O)N[C@@H](CC(N)=O)C(=O)N[C@@H](CCC(=O)O)C(=O)N[C@@H](CCC(N)=O)C(=O)N[C@@H](CCC(=O)O)C(=O)N[C@@H](CC(C)C)C(=O)N[C@@H](CC(C)C)C(=O)O` (stereo partly drawn) [Compound 3α-C16], for which the IC50 is greater than 1000 nM in experiment [1], 124 nM in the experiment with M-tropic (BAL) HIV-1 and greater than 1000 nM in the experiment with T-tropic (R8) HIV-1.

For `CC(C)C[C@H](NC(=O)[C@H](CO)NC(=O)[C@H](C)NC(=O)[C@H](Cc1c[nH]c2ccccc12)NC(=O)[C@H](CCCCN)NC(=O)[C@H](CC(=O)O)NC(=O)[C@H](CC(C)C)NC(=O)[C@H](CCC(=O)O)NC(=O)[C@H](CC(C)C)NC(=O)[C@H](CC(C)C)NC(=O)[C@H](CCC(=O)O)NC(=O)[C@H](CCC(N)=O)NC(=O)[C@H](CCC(=O)O)NC(=O)[C@H](CC(N)=O)NC(=O)[C@H](CCCCN)NC(=O)[C@H](CCC(=O)O)NC(=O)[C@H](CCC(N)=O)NC(=O)[C@H](CCC(N)=O)NC(=O)[C@H](CC(N)=O)NC(=O)[C@H](CCC(N)=O)NC(=O)[C@@H]1CSC(C(=O)NCCCC[C@H](NC(=O)CCNC(=O)C2N[C@H](C(=O)N[C@@H](CCC(N)=O)C(=O)N[C@@H](CC(N)=O)C(=O)N[C@@H](CCC(N)=O)C(=O)N[C@@H](CCC(N)=O)C(=O)N[C@@H](CCC(=O)O)C(=O)N[C@@H](CCCCN)C(=O)N[C@@H](CC(N)=O)C(=O)N[C@@H](CCC(=O)O)C(=O)N[C@@H](CCC(N)=O)C(=O)N[C@@H](CCC(=O)O)C(=O)N[C@@H](CC(C)C)C(=O)N[C@@H](CC(C)C)C(=O)N[C@@H](CCC(=O)O)C(=O)N[C@@H](CC(C)C)C(=O)N[C@@H](CC(=O)O)C(=O)N[C@@H](CCCCN)C(=O)N[C@@H](Cc3c[nH]c4ccccc34)C(=O)N[C@@H](C)C(=O)N[C@@H](CO)C(=O)N[C@@H](CC(C)C)C(=O)N[C@@H](Cc3c[nH]c4ccccc34)C(=O)N[C@@H](CC(N)=O)C(=O)N[C@@H](Cc3c[nH]c4ccccc34)C(=O)N[C@@H](Cc3ccccc3)C(=O)O)CS2)C(=O)N[C@@H](CCCCNC(=O)CNC(=O)C2N[C@H](C(=O)N[C@@H](CCC(N)=O)C(=O)N[C@@H](CC(N)=O)C(=O)N[C@@H](CCC(N)=O)C(=O)N[C@@H](CCC(N)=O)C(=O)N[C@@H](CCC(=O)O)C(=O)N[C@@H](CCCCN)C(=O)N[C@@H](CC(N)=O)C(=O)N[C@@H](CCC(=O)O)C(=O)N[C@@H](CCC(N)=O)C(=O)N[C@@H](CCC(=O)O)C(=O)N[C@@H](CC(C)C)C(=O)N[C@@H](CC(C)C)C(=O)N[C@@H](CCC(=O)O)C(=O)N[C@@H](CC(C)C)C(=O)N[C@@H](CC(=O)O)C(=O)N[C@@H](CCCCN)C(=O)N[C@@H](Cc3c[nH]c4ccccc34)C(=O)N[C@@H](C)C(=O)N[C@@H](CO)C(=O)N[C@@H](CC(C)C)C(=O)N[C@@H](Cc3c[nH]c4ccccc34)C(=O)N[C@@H](CC(N)=O)C(=O)N[C@@H](Cc3c[nH]c4ccccc34)C(=O)N[C@@H](Cc3ccccc3)C(=O)O)CS2)C(=O)N[C@@H](CO)C(=O)N[C@@H](CO)C(=O)N[C@@H](C)C(N)=O)N1)C(=O)N[C@@H](Cc1c[nH]c2ccccc12)C(=O)N[C@@H](CC(N)=O)C(=O)N[C@@H](Cc1c[nH]c2ccccc12)C(=O)N[C@@H](Cc1ccccc1)C(=O)O` (stereo partly drawn) [Compound 3α-C24], the IC50 stood at 290 nM in experiment [1], 36 nM in the experiment on M-tropic (BAL) HIV-1 and 310 nM with T-tropic (R8) HIV-1.

As for `CC[C@H](C)[C@H](NC(=O)[C@H](CC(C)C)NC(=O)[C@H](CO)NC(=O)[C@H](Cc1c[nH]cn1)NC(=O)[C@@H](NC(=O)[C@H](CC(C)C)NC(=O)[C@H](CO)NC(=O)[C@@H](NC(=O)[C@H](Cc1ccc(O)cc1)NC(=O)[C@H](CC(N)=O)NC(=O)[C@H](CC(N)=O)NC(=O)[C@@H](NC(=O)[C@@H]1CSC(C(=O)NCCCC[C@H](NC(=O)CCNC(=O)C2N[C@H](C(=O)N[C@H](C(=O)N[C@@H](CC(N)=O)C(=O)N[C@@H](CC(N)=O)C(=O)N[C@@H](Cc3ccc(O)cc3)C(=O)N[C@H](C(=O)N[C@@H](CO)C(=O)N[C@@H](CC(C)C)C(=O)N[C@H](C(=O)N[C@@H](Cc3c[nH]cn3)C(=O)N[C@@H](CO)C(=O)N[C@@H](CC(C)C)C(=O)N[C@H](C(=O)N[C@@H](CCC(=O)O)C(=O)N[C@@H](CCC(=O)O)C(=O)N[C@@H](CO)C(=O)N[C@@H](CCC(N)=O)C(=O)N[C@@H](CC(N)=O)C(=O)N[C@@H](CCC(N)=O)C(=O)N[C@@H](CCC(N)=O)C(=O)N[C@@H](CCC(=O)O)C(=O)N[C@@H](CCCCN)C(=O)N[C@@H](CC(N)=O)C(=O)N[C@@H](CCC(=O)O)C(=O)N[C@@H](CCC(N)=O)C(=O)N[C@@H](CCC(=O)O)C(=O)N[C@@H](CC(C)C)C(=O)N[C@@H](CC(C)C)C(=O)O)[C@@H](C)CC)[C@@H](C)CC)[C@@H](C)O)[C@@H](C)CC)CS2)C(=O)N[C@@H](CCCCNC(=O)CNC(=O)C2N[C@H](C(=O)N[C@H](C(=O)N[C@@H](CC(N)=O)C(=O)N[C@@H](CC(N)=O)C(=O)N[C@@H](Cc3ccc(O)cc3)C(=O)N[C@H](C(=O)N[C@@H](CO)C(=O)N[C@@H](CC(C)C)C(=O)N[C@H](C(=O)N[C@@H](Cc3c[nH]cn3)C(=O)N[C@@H](CO)C(=O)N[C@@H](CC(C)C)C(=O)N[C@H](C(=O)N[C@@H](CCC(=O)O)C(=O)N[C@@H](CCC(=O)O)C(=O)N[C@@H](CO)C(=O)N[C@@H](CCC(N)=O)C(=O)N[C@@H](CC(N)=O)C(=O)N[C@@H](CCC(N)=O)C(=O)N[C@@H](CCC(N)=O)C(=O)N[C@@H](CCC(=O)O)C(=O)N[C@@H](CCCCN)C(=O)N[C@@H](CC(N)=O)C(=O)N[C@@H](CCC(=O)O)C(=O)N[C@@H](CCC(N)=O)C(=O)N[C@@H](CCC(=O)O)C(=O)N[C@@H](CC(C)C)C(=O)N[C@@H](CC(C)C)C(=O)O)[C@@H](C)CC)[C@@H](C)CC)[C@@H](C)O)[C@@H](C)CC)CS2)C(=O)N[C@@H](CO)C(=O)N[C@@H](CO)C(=O)N[C@@H](C)C(N)=O)N1)[C@@H](C)CC)[C@@H](C)O)[C@@H](C)CC)C(=O)N[C@@H](CCC(=O)O)C(=O)N[C@@H](CCC(=O)O)C(=O)N[C@@H](CO)C(=O)N[C@@H](CCC(N)=O)C(=O)N[C@@H](CC(N)=O)C(=O)N[C@@H](CCC(N)=O)C(=O)N[C@@H](CCC(N)=O)C(=O)N[C@@H](CCC(=O)O)C(=O)N[C@@H](CCCCN)C(=O)N[C@@H](CC(N)=O)C(=O)N[C@@H](CCC(=O)O)C(=O)N[C@@H](CCC(N)=O)C(=O)N[C@@H](CCC(=O)O)C(=O)N[C@@H](CC(C)C)C(=O)N[C@@H](CC(C)C)C(=O)O` (stereo partly drawn) [Compound 3α-C27], the results for the IC50 (in experiment [1]; in the experiment on M-tropic (BAL) HIV-1; in the experiment with T-tropic (R8) HIV-1) were 2.8 nM, 0.5 nM and 380 nM, respectively.
